Measurements: patent publication US20050234115A1, “Dosage forms and methods of treatment using VEGFR inhibitors” (Pfizer Inc., priority 2004, published 2005)
Where two headings read alike, the source gives them in different places.

Tests used:
[1] = hygroscopicity of the salt; type: physicochemical; details: at 90% relative humidity at ambient temperature
Method: The mixture was then shaken gently with heating at 50° C. for 3 hours and at ambient temperature for 3 days. The solid was filtered, dried under high vacuum to afford a white solid (468 mg, 0.823 mmol, 82%). Melting point 230° C. (DSC). Hygroscopicity: 1% (by weight)) at 90% relative humidity at ambient temperature (RH). Characteristic X-ray powder diffraction peaks (2-theta, [% relative intensity]): 8.623 [90.7], 12.121 [38.9], 17.298 [95.2], 23.397 [44.7], 23.944 [51.7], 24.119 [62.7], 24.873 [55.7], 25.948 [100], and 28.821 [39.6].

[2] = tested on: patient malignancies (NSCL, renal and urothelial, breast, colorectal, other); experiment: phase 1 single agent study: tumor response; type: in vivo, human patients; details: of 29 patients with tumor response data
Method: (§1) In a phase 1 study, fifty five (55) patients were treated with the compound of formula 2 as a single agent over a dose range from 35 mg PO (oral dose) for 14 days to 400 mg PO per day continuously. Overall, 25 male and 30 female patients were treated. Patient malignancies include: NSCL (11 patients), renal and urothelial (7 patients), breast (6 patients), colorectal (7 patients), esophageal (3 patients), pancreatic (2 patients), prostate (3 patients), melanoma (2 patients), head and neck (3 patients), soft tissue sarcoma (3 patients), other (8 patients). Forty-two patients had prior chemotherapy. Three patients starting at 300 mg/d had dose reductions to 225 mg/d; 2 reductions were for grade 3 hypertension (HTN), graded by the Common Toxicity Criteria (CTC version 2), occurring between days 15 and 18; 1 additional reduction was as per the patient's request after an episode of hemoptysis in this patient with renal cell carcinoma and lung metastasis. CTC Grade 3 hypertension was initially considered dose limiting at doses of the compound of formula 2 of 300 mg/d, occurring in 2 of 6 patients. Both patients returned to CTC grade 1 or better within 7 days of holding study drug.
Of the 29 patients for whom tumor response data is available, 9 patients have stable disease beyond 2 cycles (more than 8 weeks) and 2 patients had stable disease beyond 4 cycles (more than 16 weeks).

[3] = parameters: species or system human patients; details: in vivo
Method: as §1

[4] = phase 1 single agent study: pharmacokinetic analysis; type: in vivo, human patients; details: for AUC: 250 mg
Method: A preliminary pharmacokinetic analysis has been performed on the compound of formula 2 concentration data from the patients in the Phase 1 study. In the higher dose cohorts in that study, blood specimens for pharmacokinetics were collected on Day 1 and 15 of Cycle 1 at the following times: just prior to dosing and at 0.5, 1, 2, 4, 6, 8, 12, 16, and 24 hours post-dose. Blood specimens for pharmacokinetics were also collected prior to and 2 hours after dosing on Days 3, 5, and 8 of Cycle 1. […] The 1% value of the cumulative distribution of the data is 2000 ng·hr/mL and the 99% value is 25000 ng·hr/mL. […] For instance, the 99% value for a dose of 300 mg is predicted to be 25000 ng·hr/mL times 1.2 (300 divided by 250) which equals 30000 ng·hr/mL. The 1% value for a dose of 125 mg is predicted to be 2000 ng·hr/mL times 0.5 (125 divided by 250) which equals 1000 ng·hr/mL. Similar calculations provide predictions of the 1% (lower) and 99% (upper) values of the cumulative distribution of 24-hour AUC values for doses of 150 mg, 180 mg, 260 mg, and 280 mg.

clinical = details: human, plasma, oral
From the text: (§4) With daily (i.e., QD) dosing, the 24-hour AUC value (i.e., the dosing interval AUC value) is a standard measure of systemic exposure to the compound.
(§5) A phase 1/2 study examined the safety and PK of escalating oral QD doses of the hydrochloride salt of the compound of formula 1, viz., the hydrochloride salt of 3-(4-Bromo-2,6-difluoro-benzyloxy)-5-[3-(4-pyrrolidin-1-yl-butyl)-ureido]-isothiazole-4-carboxylic acid amide (i.e., compound of formula 2 shown above), given in combination with paclitaxel (P) (225 mg m^2) and carboplatin (C) (AUC=6) administered in 21 day cycles to chemotherapy naïve patients with PS 0-1 stage IIIb or IV NSCLC with or without stable brain mets and PS 0-1.

[5] = phase 1/2 study with paclitaxel and carboplatin: PK; details: doses ≧150 mg QD
From the text: as §4, §5

stage IIIb or IV NSCLC = experiment: phase 1/2 study with paclitaxel and carboplatin: anti-tumor activity; type: in vivo, human patients; details: 24 patients evaluable for response, with P/C
Method: (§2) Anti-tumor activity was also assessed.

[6] = phase 1/2 study with paclitaxel and carboplatin: safety; type: in vivo, human patients
Method: as §2

VEGFR-2 = VEGFR-2 (Homo sapiens, UniProt P35968); experiment: VEGF stimulated VEGFR-2 autophosphorylation in whole cells; type: cell-based
From the text: (§3) The compound of formula 1 is an anti-angiogenic small molecule inhibitor of the tyrosine kinase activity of the vascular endothelial growth factor receptor 2 (VEGFR-2). […] Angiogenesis is necessary for the growth and metastasis of all solid tumors, in that newly formed blood vessels provide nutrients for growing tumors. VEGF is highly overexpressed in a number of tumors. The therapeutic objective of the compound of formula 1 is to inhibit angiogenesis and thereby prevent tumor growth by inhibition of VEGFR-2 tyrosine kinase (TK) activity.

endothelial cell = endothelial cell proliferation; type: cell-based
From the text: as §3

Sequence of VEGFR-2 (P35968 20-1356): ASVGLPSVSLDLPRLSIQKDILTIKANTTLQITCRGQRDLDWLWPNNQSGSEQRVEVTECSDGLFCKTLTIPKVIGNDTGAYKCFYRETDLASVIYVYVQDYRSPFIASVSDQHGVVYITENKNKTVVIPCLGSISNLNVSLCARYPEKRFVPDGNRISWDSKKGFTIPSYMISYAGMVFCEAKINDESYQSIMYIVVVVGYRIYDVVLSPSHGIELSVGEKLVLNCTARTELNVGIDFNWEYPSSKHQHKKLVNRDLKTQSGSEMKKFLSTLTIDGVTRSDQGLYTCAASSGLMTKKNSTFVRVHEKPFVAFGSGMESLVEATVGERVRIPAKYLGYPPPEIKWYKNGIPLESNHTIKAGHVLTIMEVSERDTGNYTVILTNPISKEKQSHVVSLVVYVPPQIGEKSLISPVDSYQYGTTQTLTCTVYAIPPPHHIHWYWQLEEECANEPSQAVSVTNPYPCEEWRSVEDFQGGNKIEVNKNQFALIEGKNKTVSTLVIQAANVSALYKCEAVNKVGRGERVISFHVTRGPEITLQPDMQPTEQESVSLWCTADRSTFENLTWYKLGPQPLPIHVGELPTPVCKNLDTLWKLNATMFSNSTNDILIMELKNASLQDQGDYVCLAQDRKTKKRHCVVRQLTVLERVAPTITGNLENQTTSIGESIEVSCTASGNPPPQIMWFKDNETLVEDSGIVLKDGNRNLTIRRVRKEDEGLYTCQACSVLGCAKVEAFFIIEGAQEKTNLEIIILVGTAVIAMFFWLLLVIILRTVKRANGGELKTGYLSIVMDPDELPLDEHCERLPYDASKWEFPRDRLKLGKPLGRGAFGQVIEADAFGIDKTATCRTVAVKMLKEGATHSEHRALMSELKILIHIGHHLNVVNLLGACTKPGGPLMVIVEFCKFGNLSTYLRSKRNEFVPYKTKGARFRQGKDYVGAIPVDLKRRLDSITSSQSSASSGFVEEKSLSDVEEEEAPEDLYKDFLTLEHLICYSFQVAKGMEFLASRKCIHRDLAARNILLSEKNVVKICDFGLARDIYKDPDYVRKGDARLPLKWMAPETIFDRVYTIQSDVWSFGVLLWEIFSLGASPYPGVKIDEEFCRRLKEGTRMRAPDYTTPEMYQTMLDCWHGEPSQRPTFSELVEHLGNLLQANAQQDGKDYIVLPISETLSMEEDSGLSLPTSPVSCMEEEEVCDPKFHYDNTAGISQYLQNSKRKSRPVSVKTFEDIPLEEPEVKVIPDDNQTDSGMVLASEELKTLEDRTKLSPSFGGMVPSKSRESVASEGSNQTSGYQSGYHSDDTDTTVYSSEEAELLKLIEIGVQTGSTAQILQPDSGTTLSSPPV

SMILES: Cl.NC(=O)c1c(OCc2c(F)cc(Br)cc2F)nsc1NC(=O)NCCCCN1CCCC1 [compound of formula 2]
- Hygroscopicity [1]: 1 % (by weight)
- patients with stable disease beyond 2 cycles (more than 8 weeks) [2]: 9 patients
- patients with stable disease beyond 4 cycles (more than 16 weeks) [2]: 2 patients
- CTC Grade 3 hypertension (initially considered dose limiting) ([3]; both, human): 2 of 6
- dermatologic events reported by more than one patient ([3]; both, human): grade 2 venostasis rash, which occurred in cycle 2, and grade 1 pallor and shingles
- events in patient dose reduced from 400 mg to 350 mg ([3]; both, human): grade 3 fatigue
- patients with dose limiting toxicities ([3]; both, human): None of the 4
- patients with dose limiting toxicity ([3]; both, human): 1 of 10
- recommended Phase 2 single agent dose ([3]; both, human): 250 mg
- reports of grade 3 diarrhea ([3]; both, human): 3 reports
- maximum administered dose ([3]; both, human, po): 400 mg
- events in patient further dose reduced to 300 mg [3]: severe renal hemorrhage, alveolar hemorrhage and gastrointestinal hemorrhage
- other gastrointestinal adverse events occurring in 2 or more patients [3]: nausea, taste disturbance, anorexia and mouth dryness
- drug concentrations versus predicted efficacious concentrations ([4]; 250 mg daily dose): consistently above the lowest predicted human efficacious concentrations
- 24-hour AUC, predicted 1% value of the cumulative distribution ([4]; dose of 125 mg, assuming dose proportionality): 1000 ng·h/mL
- 24-hour AUC, predicted 99% value of the cumulative distribution ([4]; dose of 300 mg, assuming dose proportionality): 30000 ng·h/mL
- AUC ([4]; human, plasma, oral, 250 mg QD, 19 patients, log-normal distribution, read-out: 24-hour AUC, geometric mean): 7260 ng·h/mL
- AUC ([4]; human, plasma, oral, 250 mg QD, 19 patients, read-out: 24-hour AUC values, range): 2880 to 18700 ng·h/mL
- AUC ([4]; human, plasma, oral, 250 mg QD, 19 patients, read-out: 24-hour AUC, 1% value of the cumulative distribution): 2000 ng·h/mL
- AUC ([4]; human, plasma, oral, 250 mg QD, 19 patients, read-out: 24-hour AUC, 99% value of the cumulative distribution): 25000 ng·h/mL
- Cmax ([4]; human, plasma, oral, 250 mg QD, 19 patients, standard deviation 240 ng/mL, read-out: mean Cmax (maximum observed plasma concentration)): 457 ng/mL
- half-life (clinical): ~32 h
- plasma concentrations achieved [5]: within the range associated with anti-angiogenesis in preclinical models
- objective response rate (stage IIIb or IV NSCLC): 20%
- progressive disease rate (stage IIIb or IV NSCLC): 33%
- most common treatment emergent adverse events ([6]; in vivo): diarrhea, fatigue, nausea, neuropathy, emesis, alopecia, dyspnea and arthralgia/myalgia
- safety of combination with standard doses of P/C ([6]; in vivo, po): can be safely combined with standard doses of P/C
- maximum tolerable dose ([6]; oral QD with paclitaxel 225 mg/m2 and carboplatin AUC=6, 21 day cycles, NSCLC patients): 200 mg/day

SMILES: NC(=O)c1c(OCc2c(F)cc(Br)cc2F)nsc1NC(=O)NCCCCN1CCCC1 [compound of formula 1]
- inhibition of VEGF stimulated VEGFR-2 autophosphorylation (VEGFR-2): inhibits VEGF stimulated VEGFR-2 autophosphorylation in whole cells
- inhibition of endothelial cell proliferation (endothelial cell): inhibits endothelial cell proliferation
